Like-named read-outs stand apart in the source and are kept apart here.
Target: T1, heparanase (Homo sapiens, UniProt Q9Y251)
T1 sequence (Q9Y251 158-543 limits assumed): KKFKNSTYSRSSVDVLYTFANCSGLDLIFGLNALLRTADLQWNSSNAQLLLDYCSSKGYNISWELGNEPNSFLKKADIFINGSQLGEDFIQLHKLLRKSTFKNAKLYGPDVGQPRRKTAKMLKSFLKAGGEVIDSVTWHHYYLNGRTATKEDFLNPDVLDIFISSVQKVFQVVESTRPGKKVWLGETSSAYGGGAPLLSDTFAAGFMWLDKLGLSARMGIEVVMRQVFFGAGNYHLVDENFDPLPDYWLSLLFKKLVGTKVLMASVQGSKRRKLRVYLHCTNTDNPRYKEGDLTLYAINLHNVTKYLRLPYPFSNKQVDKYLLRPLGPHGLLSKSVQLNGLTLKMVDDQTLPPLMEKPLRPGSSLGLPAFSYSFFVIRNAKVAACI
T1 sequence (Q9Y251 36-109 limits assumed): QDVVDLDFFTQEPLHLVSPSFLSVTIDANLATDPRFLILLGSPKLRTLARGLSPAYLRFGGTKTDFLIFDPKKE
Test: AGA*IA assay: heparanase-catalyzed fondaparinux cleavage, colorimetric (WST-1)
Format: biochemical

Work on Cn1cc(NC(=O)c2ccc(Oc3ccc(C(=O)Nc4cc(C(=O)Nc5cccc(CC(=O)N[C@@H](Cc6ccccc6)C(=O)O)c5)n(C)c4)cc3)cc2)cc1C(=O)Nc1cccc(CC(=O)N[C@@H](Cc2ccccc2)C(=O)O)c1 [Compound 36e, (2S,2'S)-2,2'-((2,2'-(((4,4'-((4,4'-Oxybis(benzoyl))bis(azanediyl))bis(1-methyl-1H-pyrrole-2,2'-carbonyl))bis(azanediyl))bis(3,1-phenylene))bis(acetyl))bis(azanediyl))bis(3-phenylpropanoic acid)] yielded an IC50 (AGA*IA screening, read-out: anti-heparanase activity) of less than 500 nM, an IC50 (Table 1, range activity classes, AGA*IA test on Fondaparinux, read-out: AGAIA assay IC50) of 50 to 490 nM and an IC50 (Table 2, classes as in Table 1, read-out: AGA*IA assay) of 50 to 490 nM.

— patent EP3381898A1, “SYMMETRICAL TRIS-ARYL-AMIDE DERIVATIVES AND THEIR USE AS ANTI-HEPARANASE” (priority 2017, dated 2018)
